This is an account of results in paper PMC12867150, “A fungi-derived cyclic peptide enhances Th9-mediated antitumor immunity by targeting ZAP70 and SREBP1” (The Journal of Clinical Investigation, 2025).

“And” between values parts separate entries of the source, which are not always exact repeats. Equal values may be shown once.

One test deals with PD-1 on T cells. Put plainly: PD-1 expression on donor Th9 and endogenous CD8+/CD4+ T cells from spleens (S4J-L). It is filed as in vivo, mouse. Particulars: for Expression of PD-1 of transferred CD45.1⁺ OT-II Th9 cells in spleen: Supplemental Figure 4J; for Expression of PD-1 of endogenous CD8⁺ T cells in spleen: Supplemental Figure 4K; for Expression of PD-1 of endogenous CD4⁺ T cells in spleen: Supplemental Figure 4L. How it is done:
C57BL/6 mice were subcutaneously injected with 5 × 10^5 B16-OVA melanoma cells. Five days after tumor implantation, mice received an intravenous infusion of 2 × 10^6 in vitro–differentiated Th9 cells (cultured for 5 days), which were derived from OT-II CD45.1 donor mice, accompanied by 4 × 10^5 OVA peptide–pulsed DCs via the tail vein. To enhance T cell engraftment and facilitate lymphodepletion, a single intraperitoneal injection of cyclophosphamide (200 mg/kg, Sigma, catalog C0768) was administered 1 day prior to T cell transfer. Mice were euthanized at designated time points for the collection and analysis of spleens, tumor-draining lymph nodes, and tumor tissues.
Details regarding staining panels (human and mouse), reagents (including clones and catalog numbers), acquisition settings, compensation/controls, and analysis procedures are provided in Supplemental Methods.
CD45.1+ T Cells in Tumors
CtrlEpA Ctrl EpA GzmB Ctrl EpA
CtrlEpA CtrlEpA GzmB Ctrl EpA
J CD45.1+ T Cells in Spleens K CD8+ T Cells in Spleens L CD4+ T Cells in Spleens […]
PD-1 0 CtrlEpA PD-1 0 CtrlEpA PD-1 0 CtrlEpA […]
cells and endogenous T cells.
(A–C) Mean fluorescence intensity (MFI) of IFN-γ (A) and TNF-α (B), and representative flow-cytometric plots with quantification of Granzyme B⁺ Perforin⁺ cells (C) among adoptively transferred CD45.1⁺ Th9 cells in tumors. (D–F) MFI of IFN-γ (D) and TNF-α (E), and representative plots with quantification of Granzyme B⁺ Perforin⁺ cells (F) among tumor-infiltrating CD8⁺ T cells. (G–I) MFI of IFN-γ (G) and TNF-α (H), and representative plots with quantification of Granzyme B⁺ Perforin⁺ cells (I) among tumor-infiltrating CD4⁺ T cells. (J–L) PD-1 expression in adoptively transferred CD45.1⁺ Th9 cells (J), endogenous CD8⁺ T cells (K), and endogenous CD4⁺ T cells (L) from spleens of tumor-bearing mice. Data in (A–L) are shown as mean ± SEM from n = 4 mice per group. Statistical analysis was performed using two-tailed unpaired Student’s t-test (A–L). ns, not significant. *p < 0.05, **p […]
(also on this page, place not known: IFN -γ MFIofTNF-α CtrlEpACtrlEpA MFIofIFN-γ 1500MFIofTNF-α MFIofIFN-γ 800MFIofTNF-α CtrlEpA0 CtrlEpA0 CtrlEpA0 MFI of (×103Ď CtrlEpA0 MFI of PD-1 (×103) MFI of PD-1 (×103) CtrlEpAPD-1 HG FE GzmB+ PRF1+ of CD45.1+ cells (%) GzmB+ PRF1+ of CD8+ cells (%) GzmB+ PRF1+ of CD4+ cells (%) PRF1 PRF1 PRF1 0.3887.5 MFIofIFN-γ) […]

The test system of another test is Th9 cells. Description: Seahorse oxygen consumption rate, mitochondrial stress test (Figure 4F-H). It is filed as cell-based, mouse. The method, then: After stimulation, cells were washed, resuspended in Seahorse XF assay medium (Agilent Technologies; pH 7.40–7.45, catalog 103576-100) and seeded at 5 × 10^5 cells per well in Seahorse XF96 microplates. Plates were centrifuged at 400 × g for 5 minutes to promote adherence and monolayer formation, and all conditions were tested in quadruplicate.
Oxidative phosphorylation was assessed on the same instrument using the XFe96 Mitochondrial Stress Test Kit (Agilent Technologies, catalog 103015-100). Oligomycin (1.5 μM), FCCP (0.5 μM), and rotenone plus antimycin A (0.5 μM each) were injected sequentially to measure OCR as a proxy for oxidative phosphorylation. The mitochondrial stress response was derived from OCR values obtained before and after each injection.

For the substance anteiso-C15 Leu7 surfactin [EpA], in the test on PD-1 on T cells (donor Th9 and endogenous T cells, result in words), the PD-1 expression result was “comparable between groups”. In addition, the “Expression of PD-1 of transferred CD45.1⁺ OT-II Th9 cells in spleen” value in the test on PD-1 on T cells (replicate 1) was found to be 5868; in the test with PD-1 on T cells (replicate 2) it was 7923; in the test with PD-1 on T cells (replicate 3), 10955; in the test on PD-1 on T cells (replicate 4) it was 4100. The “Expression of PD-1 of endogenous CD8⁺ T cells in spleen” value in the test with PD-1 on T cells (replicate 1) was 1931; in the test with PD-1 on T cells (replicate 2), 1939; in the test with PD-1 on T cells (replicate 3) it was 2374; in the test on PD-1 on T cells (replicate 4), 1655. In addition, the “Expression of PD-1 of endogenous CD4⁺ T cells in spleen” value in the test with PD-1 on T cells (replicate 1) turned out to be 6299; in the test on PD-1 on T cells (replicate 2) it was 5672; in the test with PD-1 on T cells (replicate 3) it was 6004; in the test with PD-1 on T cells (replicate 4), 4982. In addition, the “OCR, basal and maximal respiration” value with Th9 cells (EpA 10 μM, 4 days, result in words) was “higher basal and maximal respiration”. In addition, the “Basal Oxygen Consumption Rate” value in the test with Th9 cells (Figure 4G, individual replicates, (n = 5), in pmol/min (unit assumed)) is 169.53 and 169.91 and 173.53 and 152.33 and 158.62. Further, the “Max Oxygen Consumption Rate” value in the test on Th9 cells (Figure 4H, individual replicates, (n = 5), in pmol/min (unit assumed)) was 295.4 and 261.85 and 290.65 and 188.88 and 233.85.
